Test results: US20230278972A1, “SUBSTITUTED HALOALKYL SULFONANILIDE HERBICIDES” (FMC Corporation, priority 2020, published 2023)

Columns and labels:
Assay type in all cases: in vivo
[1] = tested on: pigweed (Amaranthus retroflexus); assay: Test A preemergence, pigweed; details: for Plant response rating, Pigweed: 125 g ai/ha, visual injury, 0 to 100 scale (0 no effect, 100 complete control), approx. 10 days; for Pigweed plant response rating: 500 g ai/ha, visual injury on 0 to 100 scale (0 no effect, 100 complete control), approximately 10 days
Summary of the method: (§1)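 Postemergence ratings come from foliar sprays onto one- to two-leaf plants of 2 to 10 cm grown in loam/sand; preemergence ratings come from a directed spray onto the soil of newly seeded pots. Formulation was a surfactant-containing non-phytotoxic solvent blend.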

[2] = tested on: wheat (Triticum aestivum); assay: Test A postemergence, wheat; details: Postemergence, 0 to 100 scale (0 no effect, 100 complete control)
Summary of the method: as §1

[3] = tested on: Foxtail, Giant (giant foxtail, Setaria faberi); assay: Test A preemergence, Foxtail, Giant; details: Preemergence; for Plant response rating, Foxtail, Giant: 125 g ai/ha, visual injury, 0 to 100 scale (0 no effect, 100 complete control), approx. 10 days; for Foxtail, Giant plant response rating: 500 g ai/ha, visual injury on 0 to 100 scale (0 no effect, 100 complete control), approximately 10 days
Summary of the method: (§2)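 After sowing into a sand-amended loam, pots for the preemergence test were treated by spraying directly onto soil. In parallel, seedlings at the one- to two-leaf stage and 2 to 10 cm tall were treated postemergence with the identical surfactant-containing formulation.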

corn (Zea mays) = assay: Test A postemergence, corn; details: Postemergence, 0 to 100 scale (0 no effect, 100 complete control)
Summary of the method: as §2

[4] = tested on: ragweed (common ragweed, Ambrosia artemisiifolia); assay: Test A preemergence, ragweed; details: Preemergence; for Plant response rating, Ragweed: 125 g ai/ha, visual injury, 0 to 100 scale (0 no effect, 100 complete control), approx. 10 days; for Ragweed plant response rating: 500 g ai/ha, visual injury on 0 to 100 scale (0 no effect, 100 complete control), approximately 10 days
Summary of the method: as §2

[5] = tested on: pigweed (Amaranthus retroflexus); assay: Test A postemergence, pigweed; details: Postemergence, 0 to 100 scale (0 no effect, 100 complete control)
Summary of the method: as §2

[6] = tested on: barnyardgrass (Echinochloa crus-galli); assay: Test A postemergence, barnyardgrass; details: Postemergence, 0 to 100 scale (0 no effect, 100 complete control)
Summary of the method: as §1

kochia (Bassia scoparia) [7] = assay: Test A postemergence, kochia; details: Postemergence, 0 to 100 scale (0 no effect, 100 complete control)
Summary of the method: as §2

kochia (Bassia scoparia) [8] = assay: Test A preemergence, kochia; details: Preemergence; for Plant response rating, Kochia: 125 g ai/ha, visual injury, 0 to 100 scale (0 no effect, 100 complete control), approx. 10 days; for Kochia plant response rating: 500 g ai/ha, visual injury on 0 to 100 scale (0 no effect, 100 complete control), approximately 10 days
Summary of the method: as §2

[9] = tested on: Ryegrass, Italian (Italian ryegrass, Lolium multiflorum); assay: Test A postemergence, Ryegrass, Italian; details: Postemergence, 0 to 100 scale (0 no effect, 100 complete control)
Summary of the method: as §2

[10] = tested on: Foxtail, Giant (giant foxtail, Setaria faberi); assay: Test A postemergence, Foxtail, Giant; details: Postemergence, 0 to 100 scale (0 no effect, 100 complete control)
Summary of the method: as §2

[11] = tested on: galium (catchweed bedstraw, Galium aparine); assay: Test A postemergence, galium; details: Postemergence, 0 to 100 scale (0 no effect, 100 complete control)
Summary of the method: as §1

[12] = tested on: ragweed (common ragweed, Ambrosia artemisiifolia); assay: Test A postemergence, ragweed; details: Postemergence, 0 to 100 scale (0 no effect, 100 complete control)
Summary of the method: as §2

[13] = tested on: blackgrass (Alopecurus myosuroides); assay: Test A postemergence, blackgrass; details: Postemergence, 0 to 100 scale (0 no effect, 100 complete control)
Summary of the method: as §2

[14] = tested on: Ryegrass, Italian (Italian ryegrass, Lolium multiflorum); assay: Test A preemergence, Ryegrass, Italian; details: Preemergence; for Plant response rating, Ryegrass, Italian: 125 g ai/ha, visual injury, 0 to 100 scale (0 no effect, 100 complete control), approx. 10 days; for Ryegrass, Italian plant response rating: 500 g ai/ha, visual injury on 0 to 100 scale (0 no effect, 100 complete control), approximately 10 days
Summary of the method: as §2

[15] = tested on: barnyardgrass (Echinochloa crus-galli); assay: Test A preemergence, barnyardgrass; details: Preemergence; for Plant response rating, Barnyardgrass: 125 g ai/ha, visual injury, 0 to 100 scale (0 no effect, 100 complete control), approx. 10 days; for Barnyardgrass plant response rating: 500 g ai/ha, visual injury on 0 to 100 scale (0 no effect, 100 complete control), approximately 10 days
Summary of the method: as §2

[16] = 500 g ai/ha, visual injury approx. 10 days

| SMILES | Plant response rating, Pigweed [1] | Pigweed plant response rating [1] | Plant response rating, Wheat ([2]; 125 g ai/ha) | Plant response rating, Wheat [2, 16] | Plant response rating, Foxtail, Giant [3] | Foxtail, Giant plant response rating [3] | Plant response rating, Corn (corn (Zea mays); 125 g ai/ha) | Plant response rating, Corn (corn (Zea mays); [16]) | Plant response rating, Ragweed [4] | Ragweed plant response rating [4] | Plant response rating, Pigweed ([5]; 125 g ai/ha) | Plant response rating, Pigweed [5, 16] | Plant response rating, Barnyardgrass ([6]; 125 g ai/ha) | Plant response rating, Barnyardgrass [6, 16] | Plant response rating, Kochia (kochia (Bassia scoparia) [7]; 125 g ai/ha) | Plant response rating, Kochia (kochia (Bassia scoparia) [7]; [16]) | Plant response rating, Kochia (kochia (Bassia scoparia) [8]) | Kochia plant response rating (kochia (Bassia scoparia) [8]) | Plant response rating, Ryegrass, Italian ([9]; 125 g ai/ha) | Plant response rating, Ryegrass, Italian [9, 16] | also measured |
| --- | --- | --- | --- | --- | --- | --- | --- | --- | --- | --- | --- | --- | --- | --- | --- | --- | --- | --- | --- | --- | --- |
| Cc1cc(Cl)c(C(=O)N2CCOCC2)cc1NS(=O)(=O)C(F)(F)F [Compound 248] | 90 | 90 | 40 | 60 | 40 | 80 | 0 | 0 | 80 | 90 | 80 | 80 | 60 | 90 | 60 | 90 | 90 | 90 | 0 | 70 | Plant response rating, Foxtail, Giant ([10]; 125 g ai/ha): 20; Plant response rating, Foxtail, Giant [10, 16]: 50; Plant response rating, Galium ([11]; 125 g ai/ha): 70; Plant response rating, Galium [11, 16]: 90; Plant response rating, Ragweed ([12]; 125 g ai/ha): 90; Plant response rating, Ragweed [12, 16]: 90; Plant response rating, Blackgrass ([13]; 125 g ai/ha): 0; Plant response rating, Blackgrass [13, 16]: 60; Plant response rating, Ryegrass, Italian [14]: 70; Ryegrass, Italian plant response rating [14]: 90; Plant response rating, Barnyardgrass [15]: 80; Barnyardgrass plant response rating [15]: 90 |
| Cc1cc(Cl)c(C(=O)N2CCOCC2)cc1N(S(=O)(=O)C(F)(F)F)S(=O)(=O)C(F)(F)F [Compound 250] | 100 | 100 | 20 | 30 | 90 | 100 | 0 | 30 | 80 | 90 | 80 | 90 | 20 | 40 | 70 | 90 | 80 | 100 | 0 | 20 | Plant response rating, Foxtail, Giant ([10]; 125 g ai/ha): 0; Plant response rating, Foxtail, Giant [10, 16]: 10; Plant response rating, Galium ([11]; 125 g ai/ha): 50; Plant response rating, Galium [11, 16]: 80; Plant response rating, Ragweed ([12]; 125 g ai/ha): 80; Plant response rating, Ragweed [12, 16]: 90; Plant response rating, Blackgrass ([13]; 125 g ai/ha): 0; Plant response rating, Blackgrass [13, 16]: 50; Plant response rating, Ryegrass, Italian [14]: 60; Ryegrass, Italian plant response rating [14]: 90; Plant response rating, Barnyardgrass [15]: 40; Barnyardgrass plant response rating [15]: 90 |
| Cc1cc(Cl)c(C(=O)N(C)C)cc1NS(=O)(=O)C(F)(F)F [Compound 251] | 100 | 100 | 40 | 70 | 50 | 90 | 0 | 30 | 80 | 80 | 80 | 80 | 70 | 70 | 40 | 60 | 90 | 90 | 30 | 80 | Plant response rating, Foxtail, Giant ([10]; 125 g ai/ha): 10; Plant response rating, Foxtail, Giant [10, 16]: 80; Plant response rating, Galium ([11]; 125 g ai/ha): 80; Plant response rating, Galium [11, 16]: 80; Plant response rating, Ragweed ([12]; 125 g ai/ha): 70; Plant response rating, Ragweed [12, 16]: 80; Plant response rating, Blackgrass ([13]; 125 g ai/ha): 20; Plant response rating, Blackgrass [13, 16]: 60; Plant response rating, Ryegrass, Italian [14]: 90; Ryegrass, Italian plant response rating [14]: 100; Plant response rating, Barnyardgrass [15]: 20; Barnyardgrass plant response rating [15]: 90 |
| Cc1cc(Cl)c(C(=O)N2CCCCC2)cc1NS(=O)(=O)C(F)(F)F [Compound 252] | 100 | 100 | 0 | 40 | 100 | 100 | 10 | 0 | 80 | 90 | 70 | 80 | 0 | 30 | 30 | 60 | 60 | 80 | 30 | 70 | Plant response rating, Foxtail, Giant ([10]; 125 g ai/ha): 0; Plant response rating, Foxtail, Giant [10, 16]: 40; Plant response rating, Galium ([11]; 125 g ai/ha): 80; Plant response rating, Galium [11, 16]: 80; Plant response rating, Ragweed ([12]; 125 g ai/ha): 10; Plant response rating, Ragweed [12, 16]: 90; Plant response rating, Blackgrass ([13]; 125 g ai/ha): 0; Plant response rating, Blackgrass [13, 16]: 0; Plant response rating, Ryegrass, Italian [14]: 60; Ryegrass, Italian plant response rating [14]: 100; Plant response rating, Barnyardgrass [15]: 40; Barnyardgrass plant response rating [15]: 100 |
| Cc1cc(Cl)c(C(=O)N2CCCCC2)cc1N(S(=O)(=O)C(F)(F)F)S(=O)(=O)C(F)(F)F [Compound 253] | 100 | 100 | 0 | 0 | 100 | 100 | 0 | 0 | 40 | 40 | 50 | 80 | 0 | 20 | 30 | 60 | 70 | 80 | 0 | 0 | Plant response rating, Foxtail, Giant ([10]; 125 g ai/ha): 0; Plant response rating, Foxtail, Giant [10, 16]: 0; Plant response rating, Galium ([11]; 125 g ai/ha): 70; Plant response rating, Galium [11, 16]: 90; Plant response rating, Ragweed ([12]; 125 g ai/ha): 30; Plant response rating, Ragweed [12, 16]: 50; Plant response rating, Blackgrass ([13]; 125 g ai/ha): 0; Plant response rating, Blackgrass [13, 16]: 0; Plant response rating, Ryegrass, Italian [14]: 60; Ryegrass, Italian plant response rating [14]: 100; Plant response rating, Barnyardgrass [15]: 60; Barnyardgrass plant response rating [15]: 70 |
